Patent publication US20240315994A1, “SMALL MOLECULE MODULATORS OF FERROPTOSIS” (ARPEGGIO BIOSCIENCES, INC., priority 2021, published 2024)

What follows are molecules tested on HT1080 cells (ATCC, cat #CCL-121) (assay: HT1080 CellTiter-Glo 2.0 IC50 assay of working examples). Conditions: HT-1080, 24 hrs, cells plated with and without 1.5 μM ferrostatin-1, table does not say which, Table 7.
Assay type: cell-based
Experimental: Biological evaluation of working examples A1-A47 and B1-B28 was performed in HT1080 cells (ATCC, cat #CCL-121) according to the procedure provided below.
• 1.1 Cells were harvested from flask into cell culture medium and then the cell number count was determined. • 1.2 The cells were suspended with 1.5 μM ferrostatin-1 and without ferrostatin-1. • 1.3 Cells were plated at a density of 1,500 cells per well in a 384-well black sided clear bottom plate, in 25 μL, using electronic multichannel pipette. • 1.4 Plates were covered with lid and spun for 1 min at 1000 rpm, then allowed to incubate overnight at 37° C. under 5% CO2.
• 2.1 Compounds were dissolved at 10 mM stock solution and 10 μl of diluted solution was transferred to a 384 LDV-plate (LABCYTE, LP-0200). A 3 fold, 11-point dilution was performed. • 2.2 Cells were treated with compounds by plate reformat Echo software and spun for 1 min at 1000 rpm. Then incubated at 37° C. for 24 hrs in a CO2 incubator.
• 3.1 The plates were removed from the incubator and allowed to equilibrate to room temperature, at least 30 minutes. • 3.2 CellTiter-Glo® 2.0 Reagent (Promega, G9242) was added (25 μL) to the assay plates and spun for 1 min at 1000 rpm. Then allowed to stand for about 20 minutes before reading luminescence signal on Envision. • 3.3 The IC50 calculations were determined with a nonlinear fit, variable slope (four parameters) log(inhibitor) vs. response model using GraphPad PRISM.

Compared with `COc1ccc(CN(C(=O)CCl)c2cc(OC)cc(OC)c2)cc1` [Compound A21, 2-chloro-N-(3,5-dimethoxyphenyl)-N-[(4-methoxyphenyl)methyl]acetamide], `COc1cc(OC)cc(N(Cc2ccc(O)cc2)C(=O)CCl)c1` [Compound A24, 2-chloro-N-(3,5-dimethoxyphenyl)-N-[(4-hydroxyphenyl)methyl]acetamide] is higher in IC50: 0.01 to 0.1 µM for the first, 0.1 to 1 µM for the second. The first is the more potent here.

First: O=C(CCl)N(Cc1ccc(F)cc1)c1ccc2ncccc2c1 [Compound A22, 2-chloro-N-[(4-fluorophenyl)methyl]-N-(6-quinolyl)acetamide]
Second: Cc1ccc(N(Cc2ccc(F)cc2)C(=O)CCl)cn1 [Compound A47, 2-chloro-N-[(4-fluorophenyl)methyl]-N-(6-methyl-3-pyridyl)acetamide]
The IC50 of the first is lower: 0.1 to 1 µM for the first, greater than 10 µM for the second. The first is the more potent here.

`COc1cc(OC)cc(N(Cc2ccc(F)cc2Br)C(=O)CCl)c1` [Compound A23, N-[(2-bromo-4-fluoro-phenyl)methyl]-2-chloro-N-(3,5-dimethoxyphenyl)acetamide] and `COc1cc(OC)cc(N(Cc2ccc(Br)c(F)c2F)C(=O)CCl)c1` [Compound A38, N-[(4-bromo-2,3-difluoro-phenyl)methyl]-2-chloro-N-(3,5-dimethoxyphenyl)acetamide] cannot be ordered by IC50: 0.01 to 0.1 µM for the first, no more than 0.01 µM for the second.

Compared with `COc1cc(C)cc(N(Cc2ccc(F)cc2)C(=O)CCl)c1` [Compound A25, 2-chloro-N-[(4-fluorophenyl)methyl]-N-(3-methoxy-5-methyl-phenyl)acetamide], `COc1cc(N(Cc2ccc(F)cc2)C(=O)CCl)ccc1C` [Compound A29, 2-chloro-N-[(4-fluorophenyl)methyl]-N-(3-methoxy-4-methyl-phenyl)acetamide] is lower in IC50: 0.1 to 1 µM for the first, 0.01 to 0.1 µM for the second. The second is the more potent here.

`COc1cc(OC)cc(N(Cc2c(Cl)cc(F)cc2Cl)C(=O)CCl)c1` [Compound A26, 2-chloro-N-[(2,6-dichloro-4-fluoro-phenyl)methyl]-N-(3,5-dimethoxyphenyl)acetamide] and `COc1cc(OC)cc(N(Cc2c(C)cc(F)cc2C)C(=O)CCl)c1` [Compound A30, 2-chloro-N-(3,5-dimethoxyphenyl)-N-[(4-fluoro-2,6-dimethyl-phenyl)methyl]acetamide] cannot be ordered by IC50: 0.01 to 0.1 µM for the first, no more than 0.01 µM for the second.

`COc1cc(OC)cc(N(Cc2ccc(F)cc2C(F)(F)F)C(=O)CCl)c1` [Compound A27, 2-chloro-N-(3,5-dimethoxyphenyl)-N-[[4-fluoro-2-(trifluoro-methyl)phenyl]methyl]acetamide] and `COc1cc(OC)cc(N(Cc2cccc(C(F)(F)F)c2F)C(=O)CCl)c1` [Compound A31, 2-chloro-N-(3,5-dimethoxyphenyl)-N-[[2-fluoro-3-(trifluoro-methyl)phenyl]methyl]acetamide] fall in the same range of IC50: 0.01 to 0.1 µM for the first, 0.01 to 0.1 µM for the second.

`COc1cc(OC)cc(N(Cc2cc(C#N)ccc2F)C(=O)CCl)c1` [Compound A28, 2-chloro-N-[(5-cyano-2-fluoro-phenyl)methyl]-N-(3,5-dimethoxyphenyl)acetamide] and `COc1cc(OC)cc(N(Cc2ccc(F)c(F)c2Cl)C(=O)CCl)c1` [Compound A43, 2-chloro-N-[(2-chloro-3,4-difluoro-phenyl)methyl]-N-(3,5-dimethoxyphenyl)acetamide] cannot be ordered by IC50: 0.01 to 0.1 µM for the first, no more than 0.01 µM for the second.

First: COc1cccc(F)c1N(Cc1ccc(F)cc1)C(=O)CCl [Compound A32, 2-chloro-N-(2-fluoro-6-methoxy-phenyl)-N-[(4-fluorophenyl)methyl]acetamide]
Second: COc1cccc(N(Cc2ccc(F)cc2)C(=O)CCl)c1Cl [Compound A35, 2-chloro-N-(2-chloro-3-methoxy-phenyl)-N-[(4-fluorophenyl)methyl]acetamide]
The IC50 of the first is higher: 1 to 10 µM for the first, 0.1 to 1 µM for the second. The second is the more potent here.

`COc1cc(OC)cc(N(Cc2ccc(F)c(OC)c2)C(=O)CCl)c1` [Compound A33, 2-chloro-N-(3,5-dimethoxyphenyl)-N-[(4-fluoro-3-methoxy-phenyl)methyl]acetamide] and `COc1cc(OC)cc(N(Cc2cc(C)cc(F)c2)C(=O)CCl)c1` [Compound A44, 2-chloro-N-(3,5-dimethoxyphenyl)-N-[(3-fluoro-5-methyl-phenyl)methyl]acetamide] cannot be ordered by IC50: no more than 0.01 µM for the first, 0.01 to 0.1 µM for the second.

First: O=C(CCl)N(Cc1ccc(F)cc1)c1cc(O)cc(Cl)c1 [Compound A34, 2-chloro-N-(3-chloro-5-hydroxy-phenyl)-N-[(4-fluorophenyl)methyl]acetamide]
Second: Cc1cc(N(Cc2ccc(F)cc2)C(=O)CCl)cc(C)c1O [Compound A41, 2-chloro-N-[(4-fluorophenyl)methyl]-N-(4-hydroxy-3,5-dimethyl-phenyl)acetamide]
The IC50 of the first is lower: 0.1 to 1 µM for the first, greater than 10 µM for the second.

Compared with `COc1ccc(N(Cc2ccc(F)cc2)C(=O)CCl)c(C#N)c1` [Compound A36, 2-chloro-N-(2-cyano-4-methoxy-phenyl)-N-[(4-fluorophenyl)methyl]acetamide], `COc1ccc(Cl)c(N(Cc2ccc(F)cc2)C(=O)CCl)c1` [Compound A37, 2-chloro-N-(2-chloro-5-methoxy-phenyl)-N-[(4-fluorophenyl)methyl]acetamide] is lower in IC50: 1 to 10 µM for the first, 0.1 to 1 µM for the second. The second is the more potent here.

First: O=C(CCl)N(Cc1ccc(F)cc1)c1cnc2[nH]nc(Br)c2c1 [Compound A39, N-(3-bromo-1H-pyrazolo[3,4-b]pyridin-5-yl)-2-chloro-N-[(4-fluorophenyl)methyl]acetamide]
Second: COc1cc(N(Cc2ccc(F)cc2)C(=O)CCl)ccn1 [Compound A46, 2-chloro-N-[(4-fluorophenyl)methyl]-N-(2-methoxy-4-pyridyl)acetamide]
The IC50 of the first is higher: 1 to 10 µM for the first, 0.1 to 1 µM for the second.

First: COc1c(C)cc(N(Cc2ccc(F)cc2)C(=O)CCl)cc1C [Compound A40, 2-chloro-N-[(4-fluorophenyl)methyl]-N-(4-methoxy-3,5-dimethyl-phenyl)acetamide]
Second: Cc1c(Cl)ccc(N(Cc2ccc(F)cc2)C(=O)CCl)c1Cl [Compound A42, 2-chloro-N-(2,4-dichloro-3-methyl-phenyl)-N-[(4-fluorophenyl)methyl]acetamide]
The IC50 of the first is lower: 0.01 to 0.1 µM for the first, 0.1 to 1 µM for the second. The first is the more potent here.

Molecule `COc1cc(OC)cc(N(Cc2cccc3nsnc23)C(=O)CCl)c1` [Compound A45, N-(2,1,3-benzothiadiazol-4-ylmethyl)-2-chloro-N-(3,5-dimethoxyphenyl)acetamide] has an IC50 of 0.01 to 0.1 µM.

Same assay, conditions: HT-1080, 24 hrs, cells plated with and without 1.5 μM ferrostatin-1, table does not say which, Table 8

`C#CC(=O)N(CCCOC)c1nc(-c2ccc(Br)cc2)cs1` [Compound B2, N-[4-(4-bromophenyl)thiazol-2-yl]-N-(3-methoxypropyl)prop-2-ynamide] and `COCCCN(C(=O)CCl)c1nc(-c2ccc(OC)cc2)cs1` [Compound B3, 2-chloro-N-[4-(4-methoxyphenyl)thiazol-2-yl]-N-(3-methoxypropyl)acetamide] fall in the same range of IC50: 1 to 10 µM for the first, 1 to 10 µM for the second.

`Cc1cc(C)cc(N(C(=O)CCl)c2nc(-c3ccc(Br)cc3)cs2)c1` [Compound B5, N-[4-(4-bromophenyl)thiazol-2-yl]-2-chloro-N-(3,5-dimethylphenyl)acetamide] and `COc1ccc(-c2csc(N(C(=O)CCl)c3cc(C)cc(C)c3)n2)cc1` [Compound B9, 2-chloro-N-(3,5-dimethylphenyl)-N-[4-(4-methoxyphenyl)thiazol-2-yl]acetamide] fall in the same range of IC50: 0.1 to 1 µM for the first, 0.1 to 1 µM for the second.

`C=CC(=O)N(c1cc(C)cc(C)c1)c1nc(-c2ccc(Br)cc2)cs1` [Compound B7, N-[4-(4-bromophenyl)thiazol-2-yl]-N-(3,5-dimethylphenyl)prop-2-enamide] and `CC#CC(=O)N(c1cc(C)cc(C)c1)c1nc(-c2ccc(Br)cc2)cs1` [Compound B8, N-[4-(4-bromophenyl)thiazol-2-yl]-N-(3,5-dimethylphenyl)but-2-ynamide] cannot be ordered by IC50: greater than 10 µM for the first, greater than 10 µM for the second.
